Laboratory results reported in patent US5270308A, “1,3-benzoxazine derivatives, their production and use” (Takeda Chemical Industries, Ltd., priority 1990, dated 1993).

Columns and labels:
[1] = tested on: Rat Aorta Sample (constriction by TEA and Ba); assay: Vasorelaxation activity in rat aorta sample: effect on constriction caused by tetraethylammonium chloride (TEA) and barium chloride (Ba); type: cell-based, Male Wister rats; conditions: TEA (30 to 45 mM) and Ba (0.3 mM), rat aorta ring, read-out: constriction inhibitory ratio (%)
Description: (§1) Vasorelaxation Activity in Rat Aorta Sample
Effect on Relaxation Caused by Tetraethylammonium Chloride (TEA) and Barium Chloride (Ba)
Method: Male Wister rats (10 to 13 weeks old) were used for the experiment. After dehematization, the aorta was excised and a ring sample (5 mm) was prepared. The sample was suspended in a bath filled with oxygenated (95% O2 -5% CO2) Krebs solution (36° C.). The ring sample was fixed at one end and the other end was connected to a transducer (Nippon Koden, Japan) for recording tension and the tension was measured. After a stabilization period of 1 hour, TEA (30 to 45 mM) and Ba (0.3 mM) were added to the bath to cause vasoconstriction. After the constriction has reached a steady state (after about 15 minutes), a test compound was added to the bath and its relaxation activity was measured.
Result: The results are shown in Table 3 in terms of the inhibitory ratio of the test compound.

[2] = tested on: Rat Aorta Sample (constriction by KCl); assay: Vasorelaxation activity in rat aorta sample: effect on constriction caused by potassium chloride (KCl); type: cell-based, Male Wister rats; conditions: KCl (80 mM), rat aorta ring, read-out: constriction inhibitory ratio (%)
Description: as §1
Effect on Relaxation Caused by Potassium Chloride (KCl)
Method: According to the same manner as that described in Experiment 1, this experiment was carried out except that KCl (80 mM) was used instead of TEA and Ba.
Result: The results are shown in Table 4 in terms of the inhibitory ratio of the test compound.

[3] = tested on: spontaneously hypertensive rat; assay: Hypotensive activity in spontaneously hypertensive rats; type: in vivo; conditions: po, orally, conscious spontaneously hypertensive rat, male, 20 to 23 weeks old, read-out: maximum effect (%) (mean ratio of maximum decrease in the blood pressure)
Description: Hypotensive Activity in Rats
Method: A spontaneously hypertensive rat (male, 20 to 23 weeks old) was operated in advance for retaining a cannula for blood pressure measurement in the left femoral artery. The experiment was carried out for the rat when waking on the next day after the operation. The cannula was connected with a transducer (Specrtramed) upon the experiment and the blood pressure was measured (Nippon Koden, Japan). A test compound was suspended in gum arabic and the suspension was administered orally.

| Compound | inhibition at 3 µM [1] [%] | inhibition at 10 µM [1] [%] | inhibition at 3 µM [2] [%] | inhibition at 10 µM [2] [%] | inhibition in vivo at 1 mg/kg [3] [%] | inhibition at 1 µM [1] [%] | inhibition at 1 µM [2] [%] |
| --- | --- | --- | --- | --- | --- | --- | --- |
| CC1(C)N=C(c2cccc[n+]2[O-])c2cc(C#N)ccc2O1 [Compound 20, 2-(6-cyano-2,2-dimethyl-2H-1,3-benzoxazin-4-yl)pyridine N-oxide] | 35 | 81 | -4 | -2 | 39 |  |  |
| CC1(C)N=C(c2cccc[n+]2[O-])c2cc(Br)ccc2O1 [Compound 23, 2-(6-bromo-2,2-dimethyl-2H-1,3-benzoxazin-4-yl)pyridine N-oxide] | 82 | 100 | 1 | 4 | 32 | 19 | -1 |
| CC1(C)N=C(c2cccc[n+]2[O-])c2cc(Cl)ccc2O1 [Compound 24, 2-(6-chloro-2,2-dimethyl-2H-1,3-benzoxazin-4-yl)pyridine N-oxide] | 76 | 94 |  | -11 | 38 |  |  |
| CC1(C)N=C(c2cccc[n+]2[O-])c2cc([N+](=O)[O-])ccc2O1 [Compound 29, 2-(2,2-dimethyl-6-nitro-2H-1,3-benzoxazin-4-yl)pyridine N-oxide] |  |  |  |  | 61 | 74 | -8 |
| CCOc1ccc[n+]([O-])c1C1=NC(C)(C)Oc2ccc(C#N)cc21 [Compound 38, 2-(6-cyano-2,2-dimethyl-2H-1,3-benzoxazin-4-yl)-3-ethoxypyridine N-oxide] |  |  |  |  | 58 |  |  |
| Cc1cc2c(cc1Br)C(c1cccc[n+]1[O-])=NC(C)(C)O2 [Compound 47, 2-(6-bromo-2,2,7-trimethyl-2H-1,3-benzoxazin-4-yl)pyridine N-oxide] | 100 |  | 2 |  |  | 72 | -1 |
| Cc1cc2c(cc1[N+](=O)[O-])C(c1cccc[n+]1[O-])=NC(C)(C)O2 [Compound 49, 2-(2,2,7-trimethyl-6-nitro-2H-1,3-benzoxazin-4-yl)pyridine N-oxide] | 77 | 86 | -6 | -3 |  | 28 | -7 |
| C#Cc1ccc2c(c1)C(c1cccc[n+]1[O-])=NC(C)(C)O2 [Compound 53, 2-(6-ethynyl-2,2-dimethyl-2H-1,3-benzoxazin-4-yl)pyridine N-oxide] |  | 89 |  | -4 |  |  |  |
| CC(=O)c1ccc2c(c1)C(c1cccc[n+]1[O-])=NC(C)(C)O2 [Compound 56, 2-(6-acetyl-2,2-dimethyl-2H-1,3-benzoxazin-4-yl)pyridine N-oxide] |  |  |  |  | 22 |  |  |
| Cc1cc2c(cc1C#N)C(c1cccc[n+]1[O-])=NC(C)(C)O2 [Compound 65, 2-(6-cyano-2,2,7-trimethyl-2H-1,3-benzoxazin-4-yl)pyridine N-oxide] | 48 | 74 | -2 | 0 |  |  |  |
| CC1(C)N=C(c2cccc[n+]2[O-])c2cc(OC(F)(F)F)ccc2O1 [Compound 69, 2-(6-trifluoromethoxy-2,2-dimethyl-2H-1,3-benzoxazin-4-yl)pyridine N-oxide] | 45 | 81 | -1 | 2 | 44 |  |  |
| CC1(C)N=C(c2cccc[n+]2[O-])c2cc(C(F)(F)F)ccc2O1 [Compound 75, 2-(6-trifluoromethyl-2,2-dimethyl-2H-1,3-benzoxazin-4-yl)pyridine N-oxide] | 91 | 100 | 1 | 2 | 54 | 38 | -2 |
| CC1(C)N=C(c2cccc[n+]2[O-])c2cc(C(F)(F)C(F)(F)F)ccc2O1 [Compound 77, 2-(6-pentafluoroethyl-2,2-dimethyl-2H-1,3-benzoxazin-4-yl)pyridine N-oxide] | 45 | 98 | 3 | 10 | 25 |  |  |
| CC1(C)N=C(c2cccc[n+]2[O-])c2cc(Cl)c(Cl)cc2O1 [Compound 79, 2-(6,7-dichloro-2,2-dimethyl-2H-1,3-benzoxazin-4-yl)pyridine N-oxide] | 57 | 65 | -1 | 3 | 36 | 24 | -5 |
| CC1(C)N=C(c2cccc[n+]2[O-])c2cc(Br)c(Cl)cc2O1 [Compound 89, 2-(6-bromo-7-chloro-2,2-dimethyl-2H-1,3-benzoxazin-4-yl)pyridine 1-oxide] | 67 | 71 | -8 | -3 | 33 | 59 | -11 |
| CC1(C)N=C(c2cccc[n+]2[O-])c2cc(C#N)c(Cl)cc2O1 [Compound 91, 2-(7-chloro-6-cyano-2,2-dimethyl-2H-1,3-benzoxazin-4-yl)pyridine N-oxide] |  |  |  |  | 39 |  |  |
| CC1(C)N=C(c2cccc[n+]2[O-])c2cc(Br)c(Br)cc2O1 [Compound 93, 2-(6,7-dibromo-2,2-dimethyl-2H-1,3-benzoxazin-4-yl)pyridine N-oxide] | 71 |  |  |  | 22 | 52 |  |
| CC1(C)N=C(c2cccc[n+]2[O-])c2cc(Br)c(F)cc2O1 [Compound 95, 2-(6-bromo-7-fluoro-2,2-dimethyl-2H-1,3-benzoxazin-4-yl)pyridine N-oxide] |  |  |  |  | 55 |  |  |
| CC1(C)N=C(c2cccnc2)c2cc(Br)ccc2O1 [Compound 98] |  |  | -6 |  |  |  | -4 |
| CCOc1ccc[n+]([O-])c1C1=NC(C)(C)Oc2cc(Cl)c(Br)cc21 [Compound 117, 2-(6-bromo-7-chloro-2,2-dimethyl-2H-1,3-benzoxazin-4-yl)-3-ethoxypyridine N-oxide] |  |  |  |  | 54 |  |  |
| COc1ccc[n+]([O-])c1C1=NC(C)(C)Oc2ccc(C(F)(F)F)cc21 [Compound 118, 2-(6-trifluoromethyl-2,2-dimethyl-2H-1,3-benzoxazin-4-yl)-3-methoxypyridineN-oxide] |  |  |  |  | 43 |  |  |
| CCOc1ccc[n+]([O-])c1C1=NC(C)(C)Oc2ccc(Br)cc21 [Compound 119, 2-(6-bromo-2,2-dimethyl-2H-1,3-benzoxazin-4-yl)-3-ethoxypyridine N-oxide] |  |  |  |  | 61 |  |  |
| CCOc1ccc[n+]([O-])c1C1=NC(C)(C)Oc2ccc(C(F)(F)F)cc21 [Compound 124, 3-ethoxy-2-(6-trifluoromethyl-2,2-dimethyl-2H-1,3-benzoxazin-4-yl)pyridine N-oxide] |  |  |  |  | 48 |  |  |
| COc1ccc[n+]([O-])c1C1=NC(C)(C)Oc2ccc(C#N)cc21 [Compound 125, 2-(6-cyano-2,2-dimethyl-2H-1,3-benzoxazin-4-yl)-3-methoxypyridine N-oxide] |  |  |  |  | 23 |  |  |
| COc1ccc[n+]([O-])c1C1=NC(C)(C)Oc2cc(Cl)c(Br)cc21 [Compound 126, 2-(6-bromo-7-chloro-2,2-dimethyl-2H-1,3-benzoxazin-4-yl)-3-methoxypyridine N-oxide] |  |  |  |  | 49 |  |  |
| COc1ccc[n+]([O-])c1C1=NC(C)(C)Oc2ccc(Br)cc21 [Compound 129, 2-(6-bromo-2,2-dimethyl-2H-1,3-benzoxazin-4-yl)-3-methoxypyridine N-oxide] |  |  |  |  | 55 |  |  |
| CC1(C)N=C(c2c(O)ccc[n+]2[O-])c2cc(Br)ccc2O1 [Compound 143, 2-(6-bromo-2,2-dimethyl-2H-1,3-benzoxadin-4-yl)-3-hydroxypyridine N-oxide] |  |  |  |  | 54 |  |  |
